Earlier results, collected in patent publication US20050107350A1, “Method for the treatment or prevention of bone disorders with a cyclooxygenase-2 inhibitor alone and in combination with a bone disorder treatment agent and compositions therewith” (Pharmacia Corporation, priority 2003, published 2005).
Where a name gives a salt, the structure may show the parent alone.

Assays:
osteoporosis patients [1] = tested on: osteoporosis patients
patients = conditions: human, in vivo
osteoporosis patients [2] = conditions: human, in vivo
rats = conditions: rat, in vivo

## NCCCC(O)(P(=O)(O)O)P(=O)(O)O [alendronate, 4-amino-1-hydroxybulylidene bisphophonic acid]
Osteoporosis patients [1]; after three years of treatment
  average improvement of patient's BMD: 8%
Osteoporosis patients [1]; lumbar spine
  patients treated who show an increase in BMD at the lumbar spine: ≤ 95%
patients
  common side effects: can irritate the lining of the upper gastrointestinal tract

## CC(C)C[C@H](NC(=O)[C@H](CCCCN)NC(=O)CNC(=O)[C@H](CC(C)C)NC(=O)[C@@H](NC(=O)[C@@H]1CSSC[C@H](N)C(=O)N[C@@H](CO)C(=O)N[C@@H](CC(N)=O)C(=O)N[C@@H](CC(C)C)C(=O)N[C@@H](CO)C(=O)N[C@@H]([C@@H](C)O)C(=O)N1)C(C)C)C(=O)N[C@@H](CO)C(=O)N[C@@H](CCC(N)=O)C(=O)N[C@@H](CCC(=O)O)C(=O)N[C@@H](CC(C)C)C(=O)N[C@@H](Cc1c[nH]cn1)C(=O)N[C@@H](CCCCN)C(=O)N[C@@H](CC(C)C)C(=O)N[C@@H](CCC(N)=O)C(=O)N[C@H](C(=O)N[C@@H](Cc1ccc(O)cc1)C(=O)N1CCC[C@H]1C(=O)N[C@@H](CCCNC(=N)N)C(=O)N[C@H](C(=O)N[C@@H](CC(N)=O)C(=O)N[C@H](C(=O)NCC(=O)N[C@@H](CO)C(=O)NCC(=O)N[C@H](C(=O)N1CCC[C@H]1C(N)=O)[C@@H](C)O)[C@@H](C)O)[C@@H](C)O)[C@@H](C)O [calcitonin]
Osteoporosis patients [1]; intranasal, after 2 years of treatment
  improvement of BMD: 1-2%
patients
  common side effects: flushing, nausea, vomiting, and diarrhea

## O=C(c1ccc(OCCN2CCCCC2)cc1)c1c(-c2ccc(O)cc2)sc2cc(O)ccc12 [raloxifene, Methanone, [6-hydroxy-2-(4-hydroxyphenyl)benzo[b]thien-3-yl] - [4-[2-(1-piperidinyl)ethoxy]phenyl]-, hydrochloride]
Osteoporosis patients [1]; over 2-3 years of treatment
  increase of BMD of the lumbar spine and hip: 2-3%
Osteoporosis patients [2]
  decrease of vertebral fractures: 50%
patients
  common side effects: leg cramps and hot flashes
  effect on risk of breast cancer: significantly decreases the risk of breast cancer

## PTH: parathyroid hormone, the only anabolic agent currently available
Osteoporosis patients [1]; Neer et al., NEJM 2001
  increase of BMD in the spine: ≤ 13%
patients
  common side effects: nausea, headaches, and leg cramps
rats
  bone tumors: increase in bone tumors
